Where two headings read alike, the source gives them in different places.
Assays:
hROMK (hKir1.1) = hROMK (hKir1.1) (Homo sapiens (Human), UniProt P48048); test: Thallium Flux Assay (ROMK channel functional thallium flux, FLIPR-Tetra); assay type: cell-based
Outline: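 HEK293 cells stably expressing hROMK loaded with FluxOR dye for 90 min, then incubated with compound for 30 min at 23-25 °C. Normalized to a 3 μM standard ROMK inhibitor as % fluorescence change.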

Kir1.1 (ROMK1) = Kir1.1 (ROMK1) (Homo sapiens (Human), UniProt P48048); test: Electrophysiology Assay (whole cell voltage clamp, IonWorks Quattro); assay type: cell-based; details: block during voltage step to 0 mV
Chain of Kir1.1 (ROMK1) (P48048 whole entry): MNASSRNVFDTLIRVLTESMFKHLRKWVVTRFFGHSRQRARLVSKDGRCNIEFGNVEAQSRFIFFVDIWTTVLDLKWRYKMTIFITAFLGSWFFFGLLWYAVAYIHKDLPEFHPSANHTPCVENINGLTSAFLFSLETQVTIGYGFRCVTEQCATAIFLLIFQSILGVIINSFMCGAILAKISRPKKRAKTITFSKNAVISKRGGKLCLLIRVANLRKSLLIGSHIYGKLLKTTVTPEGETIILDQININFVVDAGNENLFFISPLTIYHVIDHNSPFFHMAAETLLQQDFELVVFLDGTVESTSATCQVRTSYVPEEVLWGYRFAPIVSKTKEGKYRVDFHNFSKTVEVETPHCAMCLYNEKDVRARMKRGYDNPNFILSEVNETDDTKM
Outline: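 CHO cells stably expressing the channel, induced overnight with 1 mM sodium butyrate, were recorded in amphotericin-perforated patch mode. The test pulse was a 100 ms step to 0 mV from −70 mV, then a −70 to +70 mV ramp, applied before and after a 6 min compound incubation. Current amplitudes were compared.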

[1] = HEK293 cells stably expressing hROMK (hKir1.1), read-out: Thallium Flux IC50
[2] = Electrophysiology IC50, Chinese hamster ovary cells stably expressing Kir1.1
[3] = Chinese hamster ovary cells stably expressing Kir1.1, read-out: Electrophysiology IC50

Chain of hROMK (hKir1.1) (P48048 whole entry): as above

Structure (SMILES): O=C1OCc2c1ccc([C@@H]1CN3CCN(C(=O)Cc4ccc(-n5cnnn5)cc4)C[C@H]3CO1)c2Cl [Example 20, 4-chloro-5-[(3R,9aS)-8-{[4-(1H-tetrazol-1-yl)phenyl]acetyl}octahydropyrazino[2,1-c][1,4]oxazin-3-yl]-2-benzofuran-1(3H)-one]
- IC50 (hROMK (hKir1.1); [1]): 580 nM
- IC50 (Kir1.1 (ROMK1); [2]): 60 nM

Structure (SMILES): COc1c([C@@H]2CN3CCN(C(=O)Cc4ccc(-n5cnnn5)cc4)C[C@H]3CO2)ccc(F)c1C#N [Example 32, 6-fluoro-2-methoxy-3-[(3R,9aS)-8-{[4-(1H-tetrazol-1-yl)phenyl]acetyl}octahydropyrazino[2,1-c][1,4]oxazin-3-yl]benzonitrile]
- IC50 (hROMK (hKir1.1); read-out: Thallium Flux IC50): 100 nM
- IC50 (Kir1.1 (ROMK1); [2]): 140 nM

Structure (SMILES): COc1cc(CC(=O)N2CCN3C[C@@H](c4ccc5c(c4)CCOC5=O)OC[C@@H]3C2)c(F)cc1C#N [Example 30, 5-fluoro-2-methoxy-4-{2-oxo-2-[(3R,9aS)-3-(1-oxo-3,4-dihydro-1H-isochromen-6-yl)hexahydropyrazino[2,1-c][1,4]oxazin-8(1H)-yl]ethyl}benzonitrile]
- IC50 (hROMK (hKir1.1); [1]): 100 nM
- IC50 (Kir1.1 (ROMK1); [2]): 110 nM

Structure (SMILES): Cc1c([C@@H]2CN3CCN(C(=O)C4CCc5cc(-n6cnnn6)ccc54)C[C@H]3CO2)csc1C#N (single isomer, unassigned) [Example 83]
- IC50 (hROMK (hKir1.1); [1]): 140 nM
- IC50 (Kir1.1 (ROMK1); [3]): 90 nM

Structure (SMILES): Cc1c([C@H]2CN3CCN(C(=O)Cc4ccc(-n5cnnn5)cc4)C[C@H]3CN2)ccc2c1COC2=O [Example 100]
- IC50 (hROMK (hKir1.1); [1]): 430 nM
- IC50 (Kir1.1 (ROMK1); [2]): 250 nM

Structure (SMILES): Cc1c([C@@H]2CN3CCN(C(=O)Cc4ccc(-n5cnnn5)cc4)C[C@H]3CN2)ccc(F)c1C#N [Example 99, 3-((3R,9aR)-8-(2-(4-(1H-tetrazol-1-yl)phenyl)acetyl)octahydro-1H-pyrazino[1,2-a]pyrazin-3-yl)-6-fluoro-2-methylbenzonitrile]
- IC50 (hROMK (hKir1.1); [1]): 70 nM
- IC50 (Kir1.1 (ROMK1); [3]): 180 nM

Structure (SMILES): Cc1c([C@@H]2CN3CCN(C(=O)Cc4ccc(-n5cnnn5)cc4)C[C@H]3CO2)ccc2nonc12 [Example 76, (3R,9aS)-3-(4-methyl-2,1,3-benzoxadiazol-5-yl)-8-{[4-(1H-tetrazol-1-yl)phenyl]acetyl}octahydropyrazino[2,1-c][1,4]oxazine]
- IC50 (hROMK (hKir1.1); [1]): 220 nM
- IC50 (Kir1.1 (ROMK1); [3]): 220 nM

Structure (SMILES): Cc1c([C@@H]2CN3CCN(C(=O)Cc4c(F)cc(-n5cnnn5)cc4F)C[C@H]3CN2)ccc(F)c1C#N [Example 102]
- IC50 (hROMK (hKir1.1); Thallium Flux IC50): 150 nM
- IC50 (Kir1.1 (ROMK1); [2]): 160 nM

Structure (SMILES): Cc1c(C#N)cccc1[C@@H]1CN2CCN(C(=O)Cc3ccc(-n4cnnn4)cc3)C[C@H]2CO1 [Example 42, 2-methyl-3-[(3R,9aS)-8-{[4-(1H-tetrazol-1-yl)phenyl]acetyl}octahydropyrazino[2,1-c][1,4]oxazin-3-yl]benzonitrile]
- IC50 (hROMK (hKir1.1); [1]): 90 nM
- IC50 (Kir1.1 (ROMK1); [3]): 130 nM

Structure (SMILES): O=C1OCCc2cc([C@@H]3CN4CCN(C(=O)Cc5ccc(-n6cnnn6)cc5)C[C@H]4CO3)ccc21 [Example 15, 6-[(3R,9aS)-8-{[4-(1H-tetrazol-1-yl)phenyl]acetyl}octahydropyrazino[2,1-c][1,4]oxazin-3-yl]-3,4-dihydro-1H-isochromen-1-one]
- IC50 (hROMK (hKir1.1); read-out: Thallium Flux IC50): 50 nM
- IC50 (Kir1.1 (ROMK1); [3]): 80 nM

Structure (SMILES): Cc1c([C@@H]2CN3CCN(C(=O)Cc4ccc(-n5cnnn5)cc4)C[C@H]3CO2)ccc(Cl)c1C#N [Example 34, 6-chloro-2-methyl-3-[(3R,9aS)-8-{[4-(1H-tetrazol-1-yl)phenyl]acetyl}octahydropyrazino[2,1-c][1,4]oxazin-3-yl]benzonitrile]
- IC50 (hROMK (hKir1.1); [1]): 190 nM
- IC50 (Kir1.1 (ROMK1); [2]): 200 nM

Structure (SMILES): O=C(C1CCc2cc(-n3cnnn3)ccc21)N1CCN2C[C@@H](c3ccc4nonc4c3)OC[C@@H]2C1 (stereo partly drawn) [Example 78, (3R,9aS)-3-(2,1,3-benzoxadiazol-5-yl)-8-{[5-(1H-tetrazol-1-yl)-2,3-dihydro-1H-inden-1-yl]carbonyl}octahydropyrazino[2,1-c][1,4]oxazine]
- IC50 (hROMK (hKir1.1); [1]): 210 nM
- IC50 (Kir1.1 (ROMK1); [3]): 100 nM

Structure (SMILES): COc1c([C@H]2CN3CCN(C(=O)Cc4ccc(-n5cnnn5)cc4)C[C@H]3CO2)ccc(F)c1C#N [Example 33, 6-fluoro-2-methoxy-3-[(3S,9aS)-8-{[4-(1H-tetrazol-1-yl)phenyl]acetyl}octahydropyrazino[2,1-c][1,4]oxazin-3-yl]benzonitrile]
- IC50 (hROMK (hKir1.1); [1]): 110 nM
- IC50 (Kir1.1 (ROMK1); [2]): 130 nM

Structure (SMILES): Cc1c([C@H]2CN3CCN(C(=O)C4Cc5ccc(-n6cnnn6)cc5C4)C[C@H]3CO2)ccc(F)c1C#N (stereo partly drawn) [Example 44, 6-fluoro-2-methyl-3-[(3S,9aS)-8-{[5-(1H-tetrazol-1-yl)-2,3-dihydro-1H-inden-2-yl]carbonyl}octahydropyrazino[2,1-c][1,4]oxazin-3-yl]benzonitrile]
- IC50 (hROMK (hKir1.1); [1]): 370 nM
- IC50 (Kir1.1 (ROMK1); [3]): 160 nM

Structure (SMILES): COc1cc(CC(=O)N2CCN3C[C@@H](c4ccc5c(c4)COC5=O)OC[C@@H]3C2)c(F)cc1C#N [Example 10, 5-fluoro-2-methoxy-4-{2-oxo-2-[(3R,9aS)-3-(1-oxo-1,3-dihydro-2-benzofuran-5-yl)hexahydropyrazino[2,1-c][1,4]oxazin-8(1H)-yl]ethyl}benzonitrile]
- IC50 (hROMK (hKir1.1); [1]): 130 nM
- IC50 (Kir1.1 (ROMK1); [2]): 90 nM

Structure (SMILES): COc1cc([C@H]2CN3CCN(C(=O)C4CCc5cc(-n6cnnn6)ccc54)C[C@H]3CO2)ccc1C#N (mixture of isomers) [Example 66, 2-methoxy-4-[(3S,9aS)-8-{[5-(1H-tetrazol-1-yl)-2,3-dihydro-1H-inden-1-yl]carbonyl}octahydropyrazino[2,1-c][1,4]oxazin-3-yl]benzonitrile]
- IC50 (hROMK (hKir1.1); [1]): 370 nM
- IC50 (Kir1.1 (ROMK1); [3]): 490 nM

Structure (SMILES): Cc1c(CC(=O)N2CCN3C[C@@H](c4ccc(F)c(C#N)c4C)OC[C@H]3C2)cccc1-n1cnnn1 [Example 60, 6-fluoro-2-methyl-3-[(3R,9aR)-8-{[2-methyl-3-(1H-tetrazol-1-yl)phenyl]acetyl}octahydropyrazino[2,1-c][1,4]oxazin-3-yl]benzonitrile]
- IC50 (hROMK (hKir1.1); [1]): 440 nM
- IC50 (Kir1.1 (ROMK1); [3]): 420 nM

Structure (SMILES): O=C1OCCc2cc([C@@H]3CN4CCN(C(=O)C5CCCc6cc(-n7cnnn7)ccc65)C[C@H]4CO3)ccc21 (single isomer, unassigned) [Example 90]
- IC50 (hROMK (hKir1.1); [1]): 430 nM
- IC50 (Kir1.1 (ROMK1); [3]): 260 nM

Structure (SMILES): Cc1c([C@@H]2CN3CCN(C(=O)Cc4cc(-n5cnnn5)ccc4F)C[C@@H]3CO2)ccc(F)c1C#N [Example 59, 6-fluoro-3-[(3R,9aR)-8-{[2-fluoro-5-(1H-tetrazol-1-yl)phenyl]acetyl}octahydropyrazino[2,1-c][1,4]oxazin-3-yl]-2-methylbenzonitrile]
- IC50 (hROMK (hKir1.1); [1]): 360 nM
- IC50 (Kir1.1 (ROMK1); [3]): 140 nM

Structure (SMILES): COc1cc(F)c([C@@H]2CN3CCN(C(=O)Cc4ccc(-n5cnnn5)cc4)C[C@H]3CO2)cc1C#N [Example 27, 4-fluoro-2-methoxy-5-[(3R,9aS)-8-{[4-(1H-tetrazol-1-yl)phenyl]acetyl}octahydropyrazino[2,1-c][1,4]oxazin-3-yl]benzonitrile]
- IC50 (hROMK (hKir1.1); [1]): 180 nM
- IC50 (Kir1.1 (ROMK1); [2]): 390 nM

Structure (SMILES): Cc1c([C@@H]2CN3CCN(C(=O)Cc4ccc(-n5cnnn5)cc4)C[C@@H]3CO2)ccc2c1COC2=O [Example 13, 4-methyl-5-[(3R,9aR)-8-{[4-(1H-tetrazol-1-yl)phenyl]acetyl}octahydropyrazino[2,1-c][1,4]oxazin-3-yl]-2-benzofuran-1(3H)-one]
- IC50 (hROMK (hKir1.1); [1]): 120 nM
- IC50 (Kir1.1 (ROMK1); [2]): 150 nM

Structure (SMILES): Cc1c([C@@H]2CN3CCN(C(=O)C4CCc5cc(-n6cnnn6)ccc54)C[C@H]3CO2)ccc(F)c1C#N (mixture of isomers) [Example 2B, 3-((3R,9aS)-8-(5-(1H-tetrazol-1-yl)-2,3-dihydro-1H-indene-1-carbonyl)octahydropyrazino[2,1-c][1,4]oxazin-3-yl)-6-fluoro-2-methylbenzonitrile]
- IC50 (hROMK (hKir1.1); [1]): 290 nM
- IC50 (Kir1.1 (ROMK1); [3]): 150 nM

Structure (SMILES): COc1cc(CC(=O)N2CCN3C[C@@H](c4ccc5c(c4)CCOC5=O)OC[C@@H]3C2)ccc1C#N [Example 29, 2-methoxy-4-{2-oxo-2-[(3R,9aS)-3-(1-oxo-3,4-dihydro-1H-isochromen-6-yl)hexahydropyrazino[2,1-c][1,4]oxazin-8(1H)-yl]ethyl}benzonitrile]
- IC50 (hROMK (hKir1.1); [1]): 300 nM
- IC50 (Kir1.1 (ROMK1); [2]): 130 nM

Structure (SMILES): Cc1c([C@@H]2CN3CCN(C(=O)Cc4ccc(-n5cnnn5)cc4C#N)C[C@H]3CO2)ccc(F)c1C#N [Example 67, 3-[(3R,9aS)-8-{[2-cyano-4-(1H-tetrazol-1-yl)phenyl]acetyl}octahydropyrazino[2,1-c][1,4]oxazin-3-yl]-6-fluoro-2-methylbenzonitrile]
- IC50 (hROMK (hKir1.1); [1]): 130 nM
- IC50 (Kir1.1 (ROMK1); [2]): 170 nM

Structure (SMILES): Cc1cc(F)c(C#N)cc1[C@@H]1CN2CCN(C(=O)Cc3ccc(-n4cnnn4)cc3)C[C@H]2CO1 [Example 38, 2-fluoro-4-methyl-5-[(3R,9aS)-8-{[4-(1H-tetrazol-1-yl)phenyl]acetyl}octahydropyrazino[2,1-c][1,4]oxazin-3-yl]benzonitrile]
- IC50 (hROMK (hKir1.1); [1]): 110 nM
- IC50 (Kir1.1 (ROMK1); [3]): 180 nM

Structure (SMILES): Cc1c([C@H]2CN3CCN(C(=O)Cc4ccc(-n5cnnn5)cc4)C[C@H]3CO2)ccc(Cl)c1C#N [Example 35, 6-chloro-2-methyl-3-[(3S,9aS)-8-{[4-(1H-tetrazol-1-yl)phenyl]acetyl}octahydropyrazino[2,1-c][1,4]oxazin-3-yl]benzonitrile]
- IC50 (hROMK (hKir1.1); [1]): 760 nM
- IC50 (Kir1.1 (ROMK1); [2]): 260 nM

Structure (SMILES): Cc1c([C@H]2CN3CCN(C(=O)C4CCc5cc(-n6cnnn6)ccc54)C[C@H]3CO2)ccc2c1COC2=O (single isomer, unassigned) [Example 81]
- IC50 (hROMK (hKir1.1); [1]): 230 nM
- IC50 (Kir1.1 (ROMK1); [3]): 260 nM

From US9573961B2, “Inhibitors of the renal outer medullary potassium channel” (Merck Sharp & Dohme Corp., priority 2012, dated 2017)
